According to patent publication US6211215A, “Heterocyclic compounds, their production and use” (Takeda Chemical Industries, Ltd., priority 1996, dated 2001):

Assays:
HER2 [1] = molecular target: T1, HER2 (Homo sapiens, UniProt P04626); assay: Inhibition of phosphorylation of receptor tyrosine in human breast cancer cells (2), MCF-7, heregulin-stimulated; type: cell-based; design: Human breast cancer cell line MCF-7 was used; endogenous in cells; host or cells: MCF-7; details: heregulin control = 100%, read-out: Phosphorylation of receptor tyrosine residue (%)
Procedure: Human breast cancer cell line MCF-7 was used. 1,000 μl of the cell suspension (250,000 cells) was seeded in each well of the 24-well plates. The culture were incubated at 37° C. in a 5% carbon dioxide gas incubator. On the next day, 100 μl of the 10-fold serial dilution of each compound solution was added to each well and, 2 hours later, 0.5 μg/ml of heregulin was added to it. After 5 minutes the extract solution was added to it to terminate the reaction, and the protein fraction was extracted. The protein was fractionated by the protein electrophoresis. The protein in the electrophoretic gel was transferred to a nylon filter. The filter was allowed to react with the phosphorylated tyrosine-specific antibody. The reaction product was fluorescence-labeled to expose a photofilm. The intensity of the exposure on the photofilm was quantitated by an image-analyzing apparatus. The proportion of the phosphorylation of HER2 tyrosine in the cells added with a compound solution of each concentration was calculated designating the phosphorylation of HER2 tyrosine in the heregulin-added cells as 100%.
Target sequence in this assay (P04626 23-1255): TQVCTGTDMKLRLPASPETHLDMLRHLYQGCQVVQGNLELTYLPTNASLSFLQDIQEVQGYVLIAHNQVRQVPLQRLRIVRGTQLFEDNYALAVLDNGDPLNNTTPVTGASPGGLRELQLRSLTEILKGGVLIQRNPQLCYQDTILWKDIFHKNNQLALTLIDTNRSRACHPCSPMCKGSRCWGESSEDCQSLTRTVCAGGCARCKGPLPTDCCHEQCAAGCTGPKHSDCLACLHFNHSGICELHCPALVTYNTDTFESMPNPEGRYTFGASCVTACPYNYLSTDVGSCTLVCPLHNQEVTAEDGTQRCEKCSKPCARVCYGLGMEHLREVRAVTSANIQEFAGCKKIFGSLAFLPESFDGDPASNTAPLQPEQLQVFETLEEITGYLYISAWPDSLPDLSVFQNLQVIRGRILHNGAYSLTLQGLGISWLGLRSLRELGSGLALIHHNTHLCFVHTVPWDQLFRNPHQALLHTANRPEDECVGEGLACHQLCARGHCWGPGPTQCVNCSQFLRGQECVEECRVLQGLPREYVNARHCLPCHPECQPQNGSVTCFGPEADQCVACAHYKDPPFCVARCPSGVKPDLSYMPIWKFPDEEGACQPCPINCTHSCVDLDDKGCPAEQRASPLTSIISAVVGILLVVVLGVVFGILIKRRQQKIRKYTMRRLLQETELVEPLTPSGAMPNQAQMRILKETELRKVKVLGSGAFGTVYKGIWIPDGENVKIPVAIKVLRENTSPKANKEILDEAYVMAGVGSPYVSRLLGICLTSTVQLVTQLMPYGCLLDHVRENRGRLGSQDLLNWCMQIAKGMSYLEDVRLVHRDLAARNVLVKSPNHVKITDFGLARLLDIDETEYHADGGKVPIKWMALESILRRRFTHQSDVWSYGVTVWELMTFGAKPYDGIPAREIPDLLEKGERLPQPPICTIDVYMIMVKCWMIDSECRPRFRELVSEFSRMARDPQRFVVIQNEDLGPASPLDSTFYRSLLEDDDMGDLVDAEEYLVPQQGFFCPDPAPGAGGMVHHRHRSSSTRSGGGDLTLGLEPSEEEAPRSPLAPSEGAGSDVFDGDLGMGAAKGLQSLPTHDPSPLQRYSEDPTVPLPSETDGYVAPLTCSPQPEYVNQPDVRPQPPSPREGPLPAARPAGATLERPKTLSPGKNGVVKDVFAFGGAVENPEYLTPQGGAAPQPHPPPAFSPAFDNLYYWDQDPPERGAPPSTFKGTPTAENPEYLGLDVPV

HER2 [2] = molecular target: T1, HER2; assay: Inhibition of the activity of human growth factor receptor (HER2) tyrosine kinase; type: biochemical; design: the tyrosine kinase domain of the human HER2 gene was cloned; made in house; host or cells: insect cell line SF-21 (recombinant insect virus vector); details: HER2 receptor type tyrosine kinase; ELISA with HER3 substrate; read-out: Concentration of inhibiting HER2 (IC50)
Text: As enzyme standard, the tyrosine kinase domain of the human HER2 gene was cloned to prepare the recombinant gene of insect virus vector, with which the insect cell line SF-21 was infected to produce an enzyme protein (Guy P. M. et al., Journal of Biological Chemistry Vol. 267, pp.13851-13856, 1992). As substrate, the phosphorylated tyrosine domain of the HER3 protein was cloned to prepare the recombinant gene of plasmid vector with which Escherichia Coli strain JM109 was infected to give an enzyme protein (Sierke S. L. et al., Biochemistry Vol. 32, pp.10102-10108, 1993). The enzymatic reaction was performed by the enzyme-linked immunological method which consisted of fixing the substrate protein in wells of a 96-well microtiter plate, adding the enzyme into the wells and quantitating phosphorylated tyrosine, which was the reaction product, by use of the anti-phosphorylated tyrosine antibody (Cleaveland J. S. et al., Analytical Biochemistry Vol. 190, pp249-253, 1990).
Target sequence in this assay (P04626 720-987 limits assumed): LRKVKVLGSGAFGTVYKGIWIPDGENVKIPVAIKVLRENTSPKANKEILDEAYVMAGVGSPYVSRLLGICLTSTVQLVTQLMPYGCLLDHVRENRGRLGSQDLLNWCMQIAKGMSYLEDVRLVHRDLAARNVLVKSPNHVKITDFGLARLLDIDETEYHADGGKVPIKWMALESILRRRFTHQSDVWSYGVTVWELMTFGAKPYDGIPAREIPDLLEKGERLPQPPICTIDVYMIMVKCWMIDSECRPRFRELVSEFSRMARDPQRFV

For C(=C\c1nc(COc2ccc(CCCn3ccnc3)cc2)co1)/c1ccccc1 [Compound 8, 4-[4-[3-(1-imidazolyl)propyl]phenoxymethyl]-2-[(E)-2-phenylethenyl]oxazole], the activity at 0.4 µM (HER2 [1]; MCF7, 0.4 μM) was 67%, the activity at 1.6 µM (HER2 [1]; MCF7, 1.6 μM) was 41% and the activity at 6.3 µM (HER2 [1]; MCF7, 6.3 μM) was 32%. For the same compound, the activity at 25 µM (HER2 [1]; MCF7, 25 μM) was 30% and the IC50 (HER2 [2]) was 20 µM.
